From ChEMBL document CHEMBL5223064, “A review of the latest research on Mpro targeting SARS-COV inhibitors” (RSC Med Chem, 2021)
Peptide text beside a SMILES is read from it.

Tests used:
[1] = tested on: SARS-CoV-2; experiment: Antiviral activity against SARS-CoV-2 USA-WA1/2020 infected in African green monkey Vero 76 cells assessed as reduction in virus-induced cytopathic effect measured after 5 days by neutral red dye uptake analysis; type: functional, organism-based; details: Severe acute respiratory syndrome coronavirus 2, USA-WA1/2020, Vero 76, 120 h
[2] = Bioavailability in CD-1 mouse at 20 mg/kg, ip measured for 24 hrs by LC-MS/MS analysis; type: ADME, organism-based; details: in vivo

| SMILES | EC50 [1] [nM] | bioavailability [2] [%] |
| --- | --- | --- |
| CC(C)C[C@H](NC(=O)OCc1ccccc1)C(=O)N[C@@H](C[C@@H]1CCNC1=O)C(O)S(=O)(=O)O (some centres undefined) | 490 |  |
| O=C[C@H](C[C@@H]1CCNC1=O)NC(=O)[C@H](Cc1cccc(F)c1)NC(=O)c1cc2ccccc2[nH]1 |  | 80 |
| CSCC[C@@H](C=O)NC(=O)[C@H](CC(C)C)NC(=O)[C@H](CC(C)C)NC(C)=O (Ac-Leu-Leu-Met-aldehyde) | 490 |  |
| CC(C)(C)NC(=O)N[C@H](C(=O)N1C[C@H]2[C@@H]([C@H]1C(=O)NC(CC1CCC1)C(=O)C(N)=O)C2(C)C)C(C)(C)C (some centres undefined) [BOCEPREVIR] | 490 |  |
